Legend:
[1] = tested on: Honeybees; experiment: Honeybee repulsion experiment at feeding stations with 50% sucrose; format: in vivo; conditions: 2% by weight in combination with 50% sucrose, feeding station
Method: FIG. 1 describes the feeding station arrangement (A and B) for the honeybee repulsion experiments described herein. As set forth in FIG. 1, panel (A) sets forth the bee cage positions on the left portion of panel (A) with the randomized feeding station positions on the right portion of panel (A). Panel (B) sets forth an alignment of the randomized feeding station positions with a distance of two meters between feeding stations. A total of eight feeding stations were evaluated at a ten meter distance in front of the respective bee hives. The feeding stations were placed two meters apart from one another.
Honeybees were trained to deep feeders (eight positions), each containing a 50% sucrose solution for one day. After the honeybees were trained to each feeder, the 50% sucrose feeder at randomized positions 1-8 was replaced with a shallow feeder containing a combination of repelling compounds and a 50% sucrose solution according to Table 5. In accordance with FIGS. 5 and 6, 2% by weight of Camphor oil (T4), Ajowan oil (T5), Camphor powder (T6), Rosemary oil (T7), and 2-Decanone (T8) in combination with a 50% sucrose treatment were added to feeders on day two.
Table 5 describes active agents evaluated for bee repulsion and their randomized feeding station positions. As described in Table 5, T1 (control), T2 (control), T3 (control), T4 (Camphor oil), T5 (Ajowan oil), T6 (Camphor powder), T7 (Rosemary oil), and T8 (2-Decanone).
FIG. 5 evaluates the number of bees visiting a respective feed station over a time interval. FIG. 6 sets forth the mean number of honeybees visiting feeding station over a period of four hours.

[2] = Stability test of Poncho combined with Eugenol, clothianidin content by HPLC; format: physicochemical; conditions: up to 54° C. for seven days
Method: Table 6 describes a stability test with a combination of Eugenol and Poncho evaluated at room temperature, 40° C., and 54° C. at zero time, 3 days, and 7 days as confirmed by high performance liquid chromatography (HPLC).

[3] = Stability test of Poncho 600 combined with α-terpineol, clothianidin content by HPLC; format: physicochemical; conditions: combined with alpha-terpineol, up to 54° C. for eight days
Method: Table 7 describes a stability test with a combination of α-terpineol and Poncho 600 evaluated at room temperature, 40° C., and 54° C. at zero time, 2 days, and 8 days as confirmed by HPLC.

| SMILES | Honeybee repellency over the 4 hour assessment period ([1]; 4 hour assessment period) | Honeybee repellency at 24 hours [1] | Honeybee repellency at 24 hours ([1]; listed as 2-decanone) | Chemical stability of clothianidin content in Poncho [2] | Chemical stability of clothianidin content in Poncho [3] |
| --- | --- | --- | --- | --- | --- |
| CCCCCCCCC(C)=O [Compound 2-Decanone, 2-decanone] | highly repellent | exhibited repellency | still repellent | – | – |
| CN/C(=N\[N+](=O)[O-])NCc1cnc(Cl)s1 [clothianidin] | – | – | – | exhibited chemical stability | exhibited chemical stability |
